In one series the test system is L929. Briefly: Cytotoxicity against mouse L929 cells by MTT assay. Type of series: toxicity, cell-based. (In general: Tetrazolium dyes change colour on reduction, which living cells bring about.)
In series [1] the test system is Rhodotorula glutinis. Briefly: Antimicrobial activity against Rhodotorula glutinis DSM 10134 up to 67 ug/ml measured after 72 hrs by serial dilution assay. Format: functional, organism-based. Particulars: dose <= 67.0 µg/ml.
Another series has as its system KB 3-1. Briefly: Cytotoxicity against human KB-3-1 cells by MTT assay. Type of series: functional, cell-based.
Another series relates to Caenorhabditis elegans. As to the kind of experiment: Nematicidal activity against Caenorhabditis elegans at 10 to 100 ug/ml incubated for 18 hrs by stereomicroscopic analysis. Format: functional, organism-based. The conditions noted are these: dose 10-100 µg/ml.
In series [2] the test system is Staphylococcus aureus. As to the kind of experiment: Antimicrobial activity against Staphylococcus aureus DSM 346 up to 67 ug/ml measured after 72 hrs by serial dilution assay. Type of series: functional, organism-based. Particulars: dose <= 67.0 µg/ml.
Series [3] concerns Mucor plumbeus. Briefly: Antimicrobial activity against Mucor plumbeus CCF 2612 measured after 48 hrs by serial dilution assay. Type of series: functional.
The test system of series [4] is Aspergillus fumigatus. Briefly: Antimicrobial activity against Aspergillus fumigatus ATCC 204305 measured after 72 hrs by serial dilution assay. Format: functional.
Series [5] concerns Aspergillus fumigatus. Briefly: Antimicrobial activity against Aspergillus fumigatus CCF 3522 measured after 48 hrs by serial dilution assay. Format: functional.
Series [6] deals with Aspergillus fumigatus. As to the kind of experiment: Antimicrobial activity against azole-resistant Aspergillus fumigatus CCF 6651 measured after 72 hrs by serial dilution assay. Format: functional.
Series [7] has as its system Aspergillus fumigatus. Briefly: Antimicrobial activity against azole-resistant Aspergillus fumigatus CCF 6674 measured after 72 hrs by serial dilution assay. Type of series: functional.
The subject of series [8] is Cryptococcus neoformans. As to the kind of experiment: Antimicrobial activity against Cryptococcus neoformans CCF 1081 measured after 48 hrs by serial dilution assay. Type of series: functional.
The test system of series [9] is Staphylococcus aureus. As to the kind of experiment: Antimicrobial activity against Staphylococcus aureus DSM 346 measured after 72 hrs by serial dilution assay. Type of series: functional.
Series [10] deals with Rhodotorula glutinis. As to the kind of experiment: Antimicrobial activity against Rhodotorula glutinis DSM 10134 measured after 72 hrs by serial dilution assay. Format: functional.
Series [11] has as its system Mucor plumbeus. As to the kind of experiment: Antimicrobial activity against Mucor plumbeus CCF 2612 up to 67 ug/ml measured after 48 hrs by serial dilution assay. Type of series: functional, organism-based. The conditions noted are these: dose <= 67.0 µg/ml.
For series [12], the system named is Candida albicans. Briefly: Antimicrobial activity against Candida albicans CCM 8215 up to 67 ug/ml measured after 12 hrs by serial dilution assay. Particulars: dose <= 67.0 µg/ml. Type of series: functional, organism-based.
Series [13] deals with Cryptococcus neoformans. Briefly: Antimicrobial activity against Cryptococcus neoformans CCF 1081 up to 67 ug/ml measured after 48 hrs by serial dilution assay. Type of series: functional, organism-based. The conditions noted are these: dose <= 67.0 µg/ml.
The test system of series [14] is Aspergillus fumigatus. Briefly: Antimicrobial activity against azole-resistant Aspergillus fumigatus CCF 6651 up to 67 ug/ml measured after 72 hrs by serial dilution assay. Type of series: functional, organism-based. Particulars: dose <= 67.0 µg/ml.
Series [15] has as its system Candida albicans. As to the kind of experiment: Antimicrobial activity against Candida albicans CCM 8215 measured after 12 hrs by serial dilution assay. Type of series: functional.

≈ marks a conversion by molar mass, not a printed value. Calls of active or inactive are those of the source. The calls are words filed in the database; no cut-off is given here.

`COc1cc2c(c(O)c1Cc1c(O)c(O)c3cc(C)oc(=O)c3c1O)C(=O)CC[C@H]2O`: the Activity entry in the series on L929 is recorded as “Toxic”. Further, the outcome in the series with Rhodotorula glutinis [1], in the series on Caenorhabditis elegans and with Staphylococcus aureus [2] was inactive. Further, the outcome in the series with KB 3-1 was Active.
For `COc1cc2c(c(O)c1CO)C(=O)CC[C@H]2O`, the Activity entry in the series with L929 was “Non-Toxic”. In addition, the outcome in the series on Rhodotorula glutinis [1], with KB 3-1, in the series with Caenorhabditis elegans and with Staphylococcus aureus [2] was inactive.
As for `C[C@@H]1[C@H](O)[C@@H](C)/C=C/C=C/C=C/C=C/C=C/C=C/C=C/[C@H](O[C@@H]2O[C@H](C)[C@@H](O)[C@H](N)[C@@H]2O)C[C@@H]2O[C@](O)(C[C@@H](O)C[C@@H](O)[C@H](O)CC[C@@H](O)C[C@@H](O)CC(=O)O[C@H]1C)C[C@H](O)[C@H]2C(=O)O` [AMPHOTERICIN B], the minimum inhibitory concentration (MIC) with Mucor plumbeus [3] turned out to be 0.31 mg/L (≈ 0.335 µM); with Aspergillus fumigatus [4] it was 0.31 mg/L (≈ 0.335 µM); in the series with Aspergillus fumigatus [5] it was 0.31 mg/L (≈ 0.335 µM); in the series with Aspergillus fumigatus [6] it was 0.16 mg/L (≈ 0.173 µM); against Aspergillus fumigatus [7] it was 2.5 mg/L (≈ 2.71 µM); with Cryptococcus neoformans [8], 2.5 mg/L (≈ 2.71 µM).
In the series on Staphylococcus aureus [9], GENTAMICIN came in with an MIC of 0.21 mg/L.
Consider `CC[C@H](C)C[C@@H](C)/C=C(C)/C=C/C[C@H](C)[C@H](O)[C@@H](C)/C=C(C)/C=C/[C@H](O)C(C)(C)c1cc(O)c([C@H]2O[C@@H](CO)C[C@@H](O)[C@@H]2O)c(=O)o1`, for which the MIC in the series on Aspergillus fumigatus [4] stood at 0.52 mg/L (≈ 0.787 µM); in the series on Aspergillus fumigatus [5] it was 0.52 mg/L (≈ 0.787 µM); in the series on Staphylococcus aureus [9], 66.6 mg/L (≈ 101 µM); in the series on Aspergillus fumigatus [6], 2.08 mg/L (≈ 3.15 µM); against Rhodotorula glutinis [10], 8.3 mg/L (≈ 12.6 µM); in the series on Aspergillus fumigatus [7], 0.52 mg/L (≈ 0.787 µM). In the series with Cryptococcus neoformans [8], this compound displayed a minimum inhibitory concentration (MIC) of 4.15 mg/L (≈ 6.28 µM). For the same compound, the result in the series on Caenorhabditis elegans, with Mucor plumbeus [11] and in the series with Candida albicans [12] was inactive.
Take `CC[C@H](C)[C@H](O)[C@@H](C)/C=C(C)/C=C/C[C@H](C)[C@H](O)[C@@H](C)/C=C(C)/C=C/[C@H](O)C(C)(C)c1cc(O)c([C@H]2O[C@@H](CO)C[C@@H](O)[C@@H]2O)c(=O)o1`: the result with Rhodotorula glutinis [1], in the series with Cryptococcus neoformans [13], with Aspergillus fumigatus [14], with Caenorhabditis elegans, with Mucor plumbeus [11] and in the series on Candida albicans [12] was inactive. For the same compound, the result in the series with Staphylococcus aureus [2] was inactive. The MIC worked out at 0.26 mg/L (≈ 0.384 µM) in the series with Aspergillus fumigatus [4] and 16.6 mg/L (≈ 24.5 µM) against Aspergillus fumigatus [7].
As to `COc1cc2c(c(O)c1/C=C/C(C)=O)C(=O)CC[C@H]2O`, the Activity entry with L929 is “Toxic”. Also, the outcome in the series with Rhodotorula glutinis [1], with Caenorhabditis elegans and in the series with Staphylococcus aureus [2] was inactive. The outcome in the series on KB 3-1 was Active.
In the series with Rhodotorula glutinis [10], NYSTATIN had a minimum inhibitory concentration (MIC) of 4.2 mg/L.
For the compound `CC[C@H](C)C[C@@H](C)/C=C(C)/C=C/C[C@H](C)[C@H](O)[C@@H](C)/C=C(C)/C=C/[C@H](O)[C@@H](C)c1cc(O)c([C@H]2O[C@@H](CO)C[C@@H](O)[C@@H]2O)c(=O)o1`, the MIC worked out at 1.04 mg/L (≈ 1.61 µM) in the series with Mucor plumbeus [3]; 8.32 mg/L (≈ 12.9 µM) in the series on Aspergillus fumigatus [4]; 8.3 mg/L (≈ 12.8 µM) in the series with Candida albicans [15]; 0.52 mg/L (≈ 0.804 µM) against Aspergillus fumigatus [6]; 0.52 mg/L (≈ 0.804 µM) against Aspergillus fumigatus [7]; 4.15 mg/L (≈ 6.42 µM) with Cryptococcus neoformans [8].

One may read the MIC as the least concentration at which growth counts as inhibited. A high value points to a need for much substance.

The values are drawn from ChEMBL document CHEMBL5584268, “Dactylfungins and Tetralones: Bioactive Metabolites from a Nematode-Associated Laburnicola nematophila” (J Nat Prod, 2024).
